This is an account of results in paper PMC3849192, “A Simple Method for Assessing Free Brain/Free Plasma Ratios Using an In Vitro Model of the Blood Brain Barrier” (PLoS ONE, 2013).

Like-named read-outs stand apart in the source and are kept apart here.

Data set [1] concerns in vitro BBB model (co-culture of bovine brain capillary endothelial cells and rat glial cells). Nature of the data set: In vitro BBB co-culture model, Cu,br/Cu,pl ratio. The protocol: Figure 1 Schematic diagram of the experimental protocol. After 12 days of coculture in cell culture medium, both compartments of the in vitro BBB model consisting of a coculture of brain capillary endothlial cells and rat primary glial cells were filled with Hepes-buffered Ringer’s solution and the compounds dissolved at 2 µM were added in the luminal compartment (i.e donor). The presence of glial cells in the abluminal compartment was used to reproduce the non specific binding to brain tisssue within the brain prenchyma in vivo. After 1 hour, aliquots were taken from both compartments. In vitro Cu,br/Cu,pl at 1 h were calculated by dividing the concentration in the abluminal compartment (∼Cu,br) by the concentration in the luminal compartment (∼Cu,pl) at 1 h. The experimental data at 1 h were computed using the blue-norna steady-state calculator to generate the in vitro steady-state Cu,br/Cu,pl.
One hour after the addition of compounds dissolved at 2 µM in the luminal (i.e upper) compartment, aliquots were taken from both compartments previously filled with Hepes-buffered Ringer’s solution at the beginning of the experiment. […] The concentrations in both compartments of the in vitro assay after 1 h were computed using […] blue-norna.com to generate the in vitro steady-state Cu,br/Cu,pl.
The method of Dehouck et al. was used with minor modifications (Fig. 1). Bovine brain endothelial cells isolated from capillary fragments were cocultured with primary mixed glial cells from newborn Sprague–Dawley rats. The glial cells were isolated according to the method of Booher and Sensenbrenner and cultured for 3 weeks, plated on the bottom of cell culture clusters containing six wells each. The endothelial cells were seeded onto collagen-coated polycarbonate cell culture inserts (4.7 cm^2) (Corning Incorp. NY, USA), which were placed in the wells containing glial cells. The medium used for the coculture was Dulbecco’s modified Eagle’s medium supplemented with 10% calf serum, 10% horse serum, 2 mmol/L glutamine, 50 mg/L gentamicin and 1 µg/L basic fibroblast growth factor (Sigma). The medium was changed every second day. Experiments were usually initiated after 12 days of co-culture.
To monitor the integrity of the endothelial cell monolayer, the marker molecule [^14C] sucrose was added to the solution at a concentration of 0.05 µCi/ml. At the start of the transport experiments, buffered Ringer’s solution (pH = 7.4) was added to wells with glial cells. Inserts with brain endothelial cells were placed in these wells and drug solutions at 2 µM were added to the donor compartment. The plates were incubated for 1 h in a polymix shaker at 37°C with a low shaking velocity. Aliquots were taken from the donor compartment in the beginning and at the end of the experiments. The receiver compartments were sampled at the end of the experiments.
The amount of radiotracer in the abluminal compartment was measured in a liquid scintillation analyser (Packard Instrument Company, Meriden, USA). […] The concentrations of the test compound in all samples were analysed by MS/MS.
The mean free brain/plasma ratios were calculated from three individual experiments. One hour ratios were calculated by dividing the drug concentration in the receiver compartment by the free drug concentration in the donor compartment after 1 h. The experimental data at one hour (i.e concentration in both compartment at the beginning of the experiment and after 1 h) were computed using the blue-norna® steady-state calculator (www.blue-norna.com) to predict the in vivo steady-state Cu,br/Cu,pl ratios. For further details on this calculation method see file S1.
The in vivo steady-state Cu,br/Cu,pl were predicted from the in vitro experimental data collected after one hour according to the following equation: […]
Cdonor, t and Creceiver, t are the concentration of drug in the donor and receiver chambers at time t.

Data set [2] in a line: Fraction unbound brain (fu,br), brain slice method. Here is the method:
Rats (male Sprague-Dawley) were decapitated under isoflurane anesthesia and the brains were removed carefully and immersed in ice-cold oxygenated physiological buffer at pH7.4. A 6 mm coronal section was cut with a razor and mounted with cyanoacrylate glue onto the tray of the microslicer (DTK-Zero 1 Microslicer, Dosak) after which six to eight 300 µm coronal slices from striatal areas were prepared. […] The compounds were dissolved at 1 µM in the buffer and the solution was incubated with the slice for 5 h.
After 5 h, the brain slices were weighed and homogenized in 9 volumes (w/v) of ECF buffer with a sonicator (SONICS VCX 500 and VCX 130). The slice homogenates in ECF buffer were stored at −20°C prior to analysis. The concentrations of the test compound in the brain slice homogenate and in the ECF buffer was determined by LC-MS/MS.
The unbound volume of distribution Vu,brain, or free fraction fu,brain was calculated according to the following equations: [drawing 1] [drawing 2] where Cslice, CECF and V0 are amount of drug in the slice, the drug concentration in the ECF (representing the drug concentration in the brain ECF, i.e. the free concentration), and the water adhesion of the brain slice. V0 has been estimated using ^14C -inulin in a separate experiment in which brain slices were incubated for 1, 2, and 4 min. V0 was obtained from brain slice uptake – inulin time profile (apparent zero-time intercept).

Data set [3] in a line: Fraction unbound brain (fu,br), brain homogenate equilibrium dialysis. The protocol: The degree of brain binding was assessed by equilibrium dialysis. Brain homogenate (10%) was spiked with test compound at 1 µM in triplicate. […] The plate was then placed in a shaker/incubator to equilibrate for 18 hrs at 37°C. […] After the addition of 50 µl of buffer to the brain homogenate samples, 150 µl of acetonitrile was added to each sample. Finally, 50 µl of water was added to all buffer and brain homogenate samples. The plates were centrifuged and the supernatant analyzed by LC-MS/MS.
(In equilibrium dialysis free small molecules cross a membrane that holds back macromolecules.)

Setting [4] is: 2 µM in luminal compartment, abluminal/luminal concentration at 1 h.
Where [5] appears, read: steady-state ratio computed from 1 h data with the blue-norna steady-state calculator.
Setting [6] is: rat brain slices 300 µm, 1 µM, 5 h incubation.
Setting [7] is: brain homogenate (10%), 1 µM, equilibrium dialysis 18 hrs at 37°C.

Regarding `CC(C)(C)NC(=O)[C@@H]1CN(Cc2cccnc2)CCN1C[C@@H](O)C[C@@H](Cc1ccccc1)C(=O)N[C@H]1c2ccccc2C[C@H]1O` [Indinavir], the “In vitro Cu,br/Cu,pl Mean 1 h” value in data set [1] (setting [4]) was determined as 0.04. Further, the “In vitro Cu,br/Cu,pl Mean steady-state” value in data set [1] (setting [5]) is given as 0.10.
With `CN(C)CCC=C1c2ccccc2CCc2ccccc21` [Amitriptyline], the “fubrain (slice) Mean” value in data set [2] (setting [6]) was determined as 0.0060. Further, in data set [3] (setting [7]), the “fubrain (homog.) Mean” value was determined as 0.0090. In addition, the “In vitro Cu,br/Cu,pl Mean 1 h” value in data set [1] (setting [4]) stood at 0.07. For the same compound, the “In vitro Cu,br/Cu,pl Mean steady-state” value in data set [1] (setting [5]) was 0.59.
Regarding `Nc1c2c(nc3ccccc13)CCCC2` [Tacrine], the “fubrain (slice) Mean” value in data set [2] (male, Sprague-Dawley, rat, 5 h, 1 µM) is 0.1200. In addition, the “fubrain (homog.) Mean” value in data set [3] (18 h, 1 µM) is 0.1200. In addition, in data set [1] (bovine / rat, 2 µM, pH 7.4), the “In vitro Cu,br/Cu,pl Mean steady-state” value was 0.58. Further, the “In vitro Cu,br/Cu,pl Mean 1 h” value in data set [1] (bovine / rat, 1 h, 2 µM, pH 7.4) amounted to 0.23.
Take `CNCCC=C1c2ccccc2CCc2ccccc21` [Nortriptyline]: the “fubrain (slice) Mean” value in data set [2] (setting [6]) is listed as 0.0045. Further, the “fubrain (homog.) Mean” value in data set [3] (setting [7]) is 0.0046. Further, the “In vitro Cu,br/Cu,pl Mean 1 h” value in data set [1] (setting [4]) stood at 0.08. In data set [1] (setting [5]), the “In vitro Cu,br/Cu,pl Mean steady-state” value is reported as 0.81.
For the compound `O=C(CCCN1CCC(O)(c2ccc(Cl)cc2)CC1)c1ccc(F)cc1` [Haloperidol], in data set [2] (setting [6]), the “fubrain (slice) Mean” value amounted to 0.0140. In addition, the “fubrain (homog.) Mean” value in data set [3] (setting [7]) is 0.0071. In addition, the “In vitro Cu,br/Cu,pl Mean 1 h” value in data set [1] (setting [4]) was 0.09. Also, in data set [1] (setting [5]), the “In vitro Cu,br/Cu,pl Mean steady-state” value is recorded as 0.70.
Consider `CCCC(C)(COC(N)=O)COC(=O)NC(C)C` (stereo not drawn) [Carisoprodol], for which, in data set [2] (setting [6]), the “fubrain (slice) Mean” value worked out at 0.5600. Also, in data set [3] (setting [7]), the “fubrain (homog.) Mean” value amounted to 0.2020. In data set [1] (setting [4]), the “In vitro Cu,br/Cu,pl Mean 1 h” value turned out to be 0.31. Further, in data set [1] (setting [5]), the “In vitro Cu,br/Cu,pl Mean steady-state” value was 0.61.
In the case of `Nc1nnc(-c2cccc(Cl)c2Cl)c(N)n1` [Lamotrigine], the “fubrain (slice) Mean” value in data set [2] (setting [6]) was found to be 0.3600. Besides, the “fubrain (homog.) Mean” value in data set [3] (setting [7]) stood at 0.2000. Also, the “In vitro Cu,br/Cu,pl Mean 1 h” value in data set [1] (setting [4]) was determined as 0.27. In addition, the “In vitro Cu,br/Cu,pl Mean steady-state” value in data set [1] (setting [5]) is 0.43.
The like results for `NCC(CC(=O)O)c1ccc(Cl)cc1` (stereo not drawn) [Baclofen] were, in that order, 0.5800, 0.5000, 0.05 and 0.06.
On to `CCN1CCCC1CNC(=O)c1cc(S(N)(=O)=O)ccc1OC` (stereo not drawn) [Sulpiride], for which, in data set [2] (setting [6]), the “fubrain (slice) Mean” value worked out at 0.4400. Besides, the “fubrain (homog.) Mean” value in data set [3] (setting [7]) stood at 0.6000. In addition, in data set [1] (setting [4]), the “In vitro Cu,br/Cu,pl Mean 1 h” value is on record as 0.05. Besides, the “In vitro Cu,br/Cu,pl Mean steady-state” value in data set [1] (setting [5]) is reported as 0.09.
The like results for `CNCCC(Oc1ccc(C(F)(F)F)cc1)c1ccccc1` (stereo not drawn) [Fluoxetine] were, in that order, 0.0027, 0.0023, 0.10 and 0.96.
The like results for `CN1CCN(CCCN2c3ccccc3Sc3ccc(C(F)(F)F)cc32)CC1` [Trifluoperazine] were, in that order, 0.0007, 0.0007, 0.09 and 0.71.
In the same order, the values of `O=C1NC(=O)C(c2ccccc2)(c2ccccc2)N1` [Phenytoin] are 0.1200, 0.0800, 0.22 and 0.44.
Regarding `CSc1ccc2c(c1)N(CCC1CCCCN1C)c1ccccc1S2` (stereo not drawn) [Thioridazine], the “fubrain (slice) Mean” value in data set [2] (setting [6]) worked out at 0.0017. Further, in data set [3] (setting [7]), the “fubrain (homog.) Mean” value is recorded as 0.0010. For the same compound, the “In vitro Cu,br/Cu,pl Mean 1 h” value in data set [1] (setting [4]) is reported as 0.08. Moreover, in data set [1] (setting [5]), the “In vitro Cu,br/Cu,pl Mean steady-state” value was 0.68.
In the case of `Cn1c(=O)c2c(ncn2C)n(C)c1=O` [Caffeine], in data set [2] (setting [6]), the “fubrain (slice) Mean” value amounted to 0.7100. Moreover, in data set [3] (setting [7]), the “fubrain (homog.) Mean” value came out at 0.5000. Besides, the “In vitro Cu,br/Cu,pl Mean 1 h” value in data set [1] (setting [4]) is given as 0.34. Moreover, the “In vitro Cu,br/Cu,pl Mean steady-state” value in data set [1] (setting [5]) was 0.55.
The like results for `CN(C)CCCN1c2ccccc2Sc2ccc(Cl)cc21` [Chlorpromazine] were, in that order, 0.0032, 0.0008, 0.06 and 0.69.
For the compound `CNS(=O)(=O)Cc1ccc2[nH]cc(CCN(C)C)c2c1` [Sumatriptan], the “fubrain (slice) Mean” value in data set [2] (setting [6]) is listed as 0.6100. For the same compound, in data set [3] (setting [7]), the “fubrain (homog.) Mean” value came out at 0.4000. Moreover, in data set [1] (setting [4]), the “In vitro Cu,br/Cu,pl Mean 1 h” value stood at 0.05. The “In vitro Cu,br/Cu,pl Mean steady-state” value in data set [1] (setting [5]) is reported as 0.05.
As for `NCC1(CC(=O)O)CCCCC1` [Gabapentin], the “fubrain (slice) Mean” value in data set [2] (setting [6]) is 0.2400. For the same compound, the “fubrain (homog.) Mean” value in data set [3] (setting [7]) is 0.7820. Also, in data set [1] (setting [4]), the “In vitro Cu,br/Cu,pl Mean 1 h” value is 0.06. In addition, the “In vitro Cu,br/Cu,pl Mean steady-state” value in data set [1] (setting [5]) was 0.14.
`NC(=O)N1c2ccccc2C=Cc2ccccc21` [Carbamazepine]: in data set [2] (setting [6]), the “fubrain (slice) Mean” value was found to be 0.2000. Moreover, in data set [3] (setting [7]), the “fubrain (homog.) Mean” value was 0.1160. For the same compound, in data set [1] (setting [4]), the “In vitro Cu,br/Cu,pl Mean 1 h” value amounted to 0.25. For the same compound, in data set [1] (setting [5]), the “In vitro Cu,br/Cu,pl Mean steady-state” value is reported as 0.31.
The like results for `OCCOCCN1CCN(C(c2ccccc2)c2ccc(Cl)cc2)CC1` (stereo not drawn) [Hydroxyzine] were, in that order, 0.0170, 0.0100, 0.05 and 0.47.
As for `Cc1ccc(-c2nc3ccc(C)cn3c2CC(=O)N(C)C)cc1` [Zolpidem], the “fubrain (slice) Mean” value in data set [2] (male, Sprague-Dawley, rat) was 0.3500. Also, in data set [3], the “fubrain (homog.) Mean” value worked out at 0.2000. In addition, the “In vitro Cu,br/Cu,pl Mean 1 h” value in data set [1] (setting [4]) turned out to be 0.25. In addition, in data set [1] (setting [5]), the “In vitro Cu,br/Cu,pl Mean steady-state” value is 0.49.
